According to paper PMC13470012, “Long-term inhibition of lysosomal glucocerebrosidase activity promotes GPX4 stability and inhibits ferroptosis in dopaminergic neurons” (Cell Death & Disease, 2026):
pIC50: −log10 of the molar value.

Target: T1, lysosomal glucocerebrosidase (Homo sapiens, UniProt P04062)
T1 construct: gene GBA1
T1 sequence (P04062 40-536): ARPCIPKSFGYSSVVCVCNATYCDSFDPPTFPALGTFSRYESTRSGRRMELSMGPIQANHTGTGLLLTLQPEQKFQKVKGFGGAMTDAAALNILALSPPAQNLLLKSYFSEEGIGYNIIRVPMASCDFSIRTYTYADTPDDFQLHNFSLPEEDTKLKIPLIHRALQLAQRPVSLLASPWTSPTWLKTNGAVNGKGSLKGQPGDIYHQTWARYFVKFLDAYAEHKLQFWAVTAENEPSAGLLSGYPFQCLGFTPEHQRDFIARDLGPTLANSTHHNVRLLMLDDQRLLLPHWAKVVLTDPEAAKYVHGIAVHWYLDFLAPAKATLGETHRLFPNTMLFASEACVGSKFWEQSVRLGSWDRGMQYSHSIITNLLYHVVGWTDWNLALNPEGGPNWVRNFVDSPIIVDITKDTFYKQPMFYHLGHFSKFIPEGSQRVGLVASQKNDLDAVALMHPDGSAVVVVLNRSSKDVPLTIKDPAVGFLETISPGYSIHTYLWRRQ
Assay: fluorogenic (4-methylumbelliferone) glucocerebrosidase activity assay in lysates of CBE-treated human LUHMES cells, […] h dose range
Type: cell-based

Compound: O[C@H]1[C@H](O)[C@@H](O)[C@@H]2O[C@@H]2[C@@H]1O [conduritol-beta-epoxide]
- pIC50: ~5.05
